US9499550B2 (BRISTOL-MYERS SQUIBB COMPANY, priority 2012, dated 2016)
Read-outs that look alike come from different tables or passages of the source.

Assays:
[1] = test system: HCV genotype 1b (Con1) replicon in HUH-7 cells; experiment: HCV replicon luciferase reporter assay, genotype 1b; type: cell-based; settings: Hepatitis C virus, Huh-7, 72 h, HCV genotype 1b replicon luciferase, 3 days incubation
Method in brief: (§1)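 Replicon inhibition for both genotypes was measured as Renilla luciferase signal (EnduRen, 7.5 μM final, 2 h) after 3-day, 37° C exposure of replicon-bearing HUH-7 cells in 4% FCS DMEM, 0.5% DMSO. The 1b construct carries S1179I; the 1a H77 construct carries P1496L and S2204I. Twenty-point, 3-fold dilutions were fitted four-parametrically for EC50, and CC50 was taken from multiplexed Cell Titer-Blue.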

[2] = test system: HCV genotype 1a (H77 strain) replicon in HUH-7 cells; experiment: HCV replicon luciferase reporter assay, genotype 1a; type: cell-based; settings: Hepatitis C virus, Huh-7, 72 h, HCV genotype 1a replicon luciferase, 3 days incubation
Method in brief: as §1

[3] = GETYPE1B, read-out: LE_1b (EC50, range)
[4] = GETYPE1A, read-out: LE_1a (EC50, range)
[5] = GETYPE1B, read-out: LE_1b (EC50)
[6] = GETYPE1A, read-out: LE_1a (EC50)

Structure (SMILES) | EC50 ([1]; read-out: LE_1b (EC50, range)) | EC50 ([2]; read-out: LE_1a (EC50, range)) | EC50 [1, 3] | EC50 [2, 4] | EC50 [1, 5] | EC50 [2, 6]
CCOc1ccc2nc(C(F)(F)F)c(O[C@@H]3C[C@H]4C(=O)N[C@]5(C(=O)NS(=O)(=O)C6(C)CC6)C[C@H]5/C=C\CC[C@H](C)C[C@@H](C)[C@H](NC(=O)OC(C)(C)C)C(=O)N4C3)nc2c1 [Compound 4347, tert-butyl ((2R,6S,7R,9S,13aS,14aR,16aS,Z)-2-((7-ethoxy-3-(trifluoromethyl)quinoxalin-2-yl)oxy)-7,9-dimethyl-14a-(((1-methylcyclopropyl)sulfonyl)carbamoyl)-5,16-dioxo-1,2,3,5,6,7,8,9,10,11,13a,14,14a,15,16,16a-hexadecahydrocyclopropa[e]pyrrolo[1,2-a][1,4]diazacyclopentadecin-6-yl)carbamate] | 1.01 to 5 nM | 5.01 to 35 nM |  |  |  | 
CCOc1ccc2nc(C(F)(F)F)c(O[C@@H]3C[C@H]4C(=O)N[C@]5(C(=O)NS(=O)(=O)C6(C)CC6)C[C@H]5/C=C\CC[C@@H](C)C[C@@H](C)[C@H](NC(=O)OC(C)(C)C(F)(F)F)C(=O)N4C3)nc2c1 [Compound 4348] |  |  | 0.1 to 0.5 nM | 0.51 to 1 nM |  | 
CCOc1ccc2nc(C(F)(F)F)c(O[C@@H]3C[C@H]4C(=O)N[C@]5(C(=O)NS(=O)(=O)C6(C)CC6)C[C@H]5/C=C\CC[C@H](C)C[C@@H](C)[C@H](NC(=O)OC(C)(C)C(F)(F)F)C(=O)N4C3)nc2c1 [Compound 4349] |  |  | 1.01 to 5 nM | 5.01 to 35 nM |  | 
CC[C@@H]1C[C@H](C)CC/C=C\[C@@H]2C[C@@]2(C(=O)NS(=O)(=O)C2(C)CC2)NC(=O)[C@@H]2C[C@@H](Oc3nc4cc(OC(C)C)ccc4nc3C(F)(F)F)CN2C(=O)[C@H]1NC(=O)OC(C)(C)C(F)(F)F [Compound 4350] |  |  | 0.51 to 1 nM | 1.01 to 5 nM | 0.88 nM | 1.49 nM
COc1cc2nc(C(F)(F)F)c(OC)nc2cc1O[C@@H]1C[C@H]2C(=O)N[C@]3(C(=O)NS(=O)(=O)C4(C)CC4)C[C@H]3/C=C\CC[C@@H](C)C[C@@H](C)[C@H](NC(=O)OC(C)(C)C)C(=O)N2C1 [Compound 4351, tert-butyl ((2R,6S,7R,9R,13aS,14aR,16aS,Z)-2-((3,7-dimethoxy-2-(trifluoromethyl)quinoxalin-6-yl)oxy)-7,9-dimethyl-14a-(((1-methylcyclopropyl)sulfonyl)carbamoyl)-5,16-dioxo-1,2,3,5,6,7,8,9,10,11,13a,14,14a,15,16,16a-hexadecahydrocyclopropa[e]pyrrolo[1,2-a][1,4]diazacyclopentadecin-6-yl)carbamate] | 1.01 to 5 nM | 5.01 to 35 nM |  |  |  | 
COc1cc2nc(C(F)(F)F)c(OC)nc2cc1O[C@@H]1C[C@H]2C(=O)N[C@]3(C(=O)NS(=O)(=O)C4(C)CC4)C[C@H]3/C=C\CC[C@H](C)C[C@@H](C)[C@H](NC(=O)OC(C)(C)C)C(=O)N2C1 [Compound 4352, tert-butyl ((2R,6S,7R,9S,13aS,14aR,16aS,Z)-2-((3,7-dimethoxy-2-(trifluoromethyl)quinoxalin-6-yl)oxy)-7,9-dimethyl-14a-(((1-methylcyclopropyl)sulfonyl)carbamoyl)-5,16-dioxo-1,2,3,5,6,7,8,9,10,11,13a,14,14a,15,16,16a-hexadecahydrocyclopropa[e]pyrrolo[1,2-a][1,4]diazacyclopentadecin-6-yl)carbamate] | 35 to 620 nM | 35 to 620 nM |  |  |  | 
COc1cc2nc(C(F)(F)F)c(OC)nc2cc1O[C@@H]1C[C@H]2C(=O)N[C@]3(C(=O)NS(=O)(=O)C4(C)CC4)C[C@H]3/C=C\CC[C@@H](C)C[C@@H](C)[C@H](NC(=O)OC(C)(C)C(F)(F)F)C(=O)N2C1 [Compound 4353] |  |  | 1.01 to 5 nM | 5.01 to 35 nM |  | 
COc1cc2nc(C(F)(F)F)c(OC)nc2cc1O[C@@H]1C[C@H]2C(=O)N[C@]3(C(=O)NS(=O)(=O)C4(C)CC4)C[C@H]3/C=C\CC[C@H](C)C[C@@H](C)[C@H](NC(=O)OC(C)(C)C(F)(F)F)C(=O)N2C1 [Compound 4354] |  |  | 35 to 620 nM | 35 to 620 nM |  | 
CC[C@@H]1C[C@H](C)CC/C=C\[C@@H]2C[C@@]2(C(=O)NS(=O)(=O)C2(C)CC2)NC(=O)[C@@H]2C[C@@H](Oc3ncc(OC)c4ccc(F)cc34)CN2C(=O)[C@H]1NC(=O)c1ccn(C)n1 [Compound 4356, (2R,6S,7R,9R,13aS,14aR,16aS,Z)-7-ethyl-2-((7-fluoro-4-methoxyisoquinolin-1-yl)oxy)-9-methyl-6-(1-methyl-1H-pyrazole-3-carboxamido)-N-((1-methylcyclopropyl)sulfonyl)-5,16-dioxo-1,2,3,5,6,7,8,9,10,11,13a,14,14a,15,16,16a-hexadecahydrocyclopropa[e]pyrrolo[1,2-a][1,4]diazacyclopentadecine-14a-carboxamide] | 0.1 to 0.5 nM | 0.51 to 1 nM |  |  |  | 
CC[C@@H]1C[C@H](C)CC/C=C\[C@@H]2C[C@@]2(C(=O)NS(=O)(=O)C2(C)CC2)NC(=O)[C@@H]2C[C@@H](Oc3ncc(OC)c4ccc(F)cc34)CN2C(=O)[C@H]1NC(=O)O[C@H](C)C(F)(F)F [Compound 4357, (R)-1,1,1-trifluoropropan-2-yl ((2R,6S,7R,9R,13aS,14aR,16aS,Z)-7-ethyl-2-((7-fluoro-4-methoxyisoquinolin-1-yl)oxy)-9-methyl-14a-(((1-methylcyclopropyl)sulfonyl)carbamoyl)-5,16-dioxo-1,2,3,5,6,7,8,9,10,11,13a,14,14a,15,16,16a-hexadecahydrocyclopropa[e]pyrrolo[1,2-a][1,4]diazacyclopentadecin-6-yl)carbamate] | 0.51 to 1 nM | 1.01 to 5 nM |  |  |  | 
CCOc1ccc2nc(O)c(O[C@@H]3C[C@H]4C(=O)N[C@]5(C(=O)NS(=O)(=O)C6(C)CC6)C[C@H]5/C=C\CC[C@@H](C)C[C@@H](CC)[C@H](NC(=O)OC(C)(C)C)C(=O)N4C3)nc2c1 [Compound 4361, tert-butyl ((2R,6S,7R,9R,13aS,14aR,16aS,Z)-2-((7-ethoxy-3-hydroxyquinoxalin-2-yl)oxy)-7-ethyl-9-methyl-14a-(((1-methylcyclopropyl)sulfonyl)carbamoyl)-5,16-dioxo-1,2,3,5,6,7,8,9,10,11,13a,14,14a,15,16,16a-hexadecahydrocyclopropa[e]pyrrolo[1,2-a][1,4]diazacyclopentadecin-6-yl)carbamate] | 5.01 to 35 nM | 35 to 620 nM |  |  |  | 
CC[C@@H]1C[C@H](C)CC/C=C\[C@@H]2C[C@@]2(C(=O)NS(=O)(=O)C2(C)CC2)NC(=O)[C@@H]2C[C@@H](Oc3nc4cc(OC(C)C)ccc4nc3C(F)(F)F)CN2C(=O)[C@H]1NC(=O)OC(C)(C)C [Compound 4362, tert-butyl ((2R,6S,7R,9R,13aS,14aR,16aS,Z)-7-ethyl-2-((7-isopropoxy-3-(trifluoromethyl)quinoxalin-2-yl)oxy)-9-methyl-14a-(((1-methylcyclopropyl)sulfonyl)carbamoyl)-5,16-dioxo-1,2,3,5,6,7,8,9,10,11,13a,14,14a,15,16,16a-hexadecahydrocyclopropa[e]pyrrolo[1,2-a][1,4]diazacyclopentadecin-6-yl)carbamate] | 0.51 to 1 nM | 1.01 to 5 nM |  |  |  | 
CCOc1ccc2nc(C(F)(F)F)c(O[C@@H]3C[C@H]4C(=O)N[C@]5(C(=O)NS(=O)(=O)C6(C)CC6)C[C@H]5/C=C\CC[C@@H](C)C[C@@H](CC)[C@H](NC(=O)OC(C)(C)C)C(=O)N4C3)nc2c1 [Compound 4363, tert-butyl ((2R,6S,7R,9R,13aS,14aR,16aS,Z)-2-((7-ethoxy-3-(trifluoromethyl)quinoxalin-2-yl)oxy)-7-ethyl-9-methyl-14a-(((1-methylcyclopropyl)sulfonyl)carbamoyl)-5,16-dioxo-1,2,3,5,6,7,8,9,10,11,13a,14,14a,15,16,16a-hexadecahydrocyclopropa[e]pyrrolo[1,2-a][1,4]diazacyclopentadecin-6-yl)carbamate] | 0.1 to 0.5 nM | 1.01 to 5 nM |  |  |  | 
CC[C@@H]1C[C@H](C)CC/C=C\[C@@H]2C[C@@]2(C(=O)NS(=O)(=O)C2(C)CC2)NC(=O)[C@@H]2C[C@@H](Oc3cc4nc(OC)c(C(F)(F)F)nc4cc3OC)CN2C(=O)[C@H]1NC(=O)OC(C)(C)C [Compound 4365, tert-butyl ((2R,6S,7R,9R,13aS,14aR,16aS,Z)-2-((3,7-dimethoxy-2-(trifluoromethyl)quinoxalin-6-yl)oxy)-7-ethyl-9-methyl-14a-(((1-methylcyclopropyl)sulfonyl)carbamoyl)-5,16-dioxo-1,2,3,5,6,7,8,9,10,11,13a,14,14a,15,16,16a-hexadecahydrocyclopropa[e]pyrrolo[1,2-a][1,4]diazacyclopentadecin-6-yl)carbamate] | 5.01 to 35 nM | 5.01 to 35 nM |  |  |  | 
COc1ccc2nc(C)c(O[C@@H]3C[C@H]4C(=O)N[C@]5(C(=O)NS(=O)(=O)C6(C)CC6)C[C@H]5/C=C\CC[C@@H](C)C[C@@H](C)[C@H](NC(=O)OC(C)(C)C(F)(F)F)C(=O)N4C3)nc2c1 [Compound 4366] |  |  | 0.1 to 0.5 nM | 0.51 to 1 nM | 0.25 nM | 0.58 nM
COc1ccc2nc(OC)c(O[C@@H]3C[C@H]4C(=O)N[C@]5(C(=O)NS(=O)(=O)C6(C)CC6)C[C@H]5/C=C\CC[C@@H](C)C[C@@H](C)[C@H](NC(=O)OC(C)(C)C)C(=O)N4C3)cc2c1 [Compound 4373, tert-butyl ((2R,6S,7R,9R,13aS,14aR,16aS,Z)-2-((2,6-dimethoxyquinolin-3-yl)oxy)-7,9-dimethyl-14a-(((1-methylcyclopropyl)sulfonyl)carbamoyl)-5,16-dioxo-1,2,3,5,6,7,8,9,10,11,13a,14,14a,15,16,16a-hexadecahydrocyclopropa[e]pyrrolo[1,2-a][1,4]diazacyclopentadecin-6-yl)carbamate] | 0.1 to 0.5 nM | 0.1 to 0.5 nM |  |  |  | 
